Results taken from US20060008800A1, “Unc-13 in the modulation of neurotransmission and secretion events” (priority 2002, published 2006).

Assays:
NMDA receptors [1] = assay: Use dependent block of synaptic NMDA EPSCs by MK-801; assay type: cell-based, mouse; conditions: 5 μM; 120 evoked NMDA EPSCs; Munc13-1 deficient neurons
NMDA receptors [2] = conditions: cited from earlier work
hippocampal neurons [3] = assay: β-phorbol ester induced potentiation of evoked synaptic currents in autaptic neuron cultures (patch clamp); assay type: cell-based, mouse; conditions: for β-phorbol ester induced EPSC potentiation (synaptic potentiation): PDBU 100-1000 nM; for EPSC potentiation: PDBU
Experimental: (§1) Microisland culture preparation was performed according to Bekkers and Stevens (1991). The extracellular medium contained (mM): NaCl, 167; KCl, 2.4; HEPES, 10; glucose, 10; CaCl2, 4; MgCl2, 4 (340 mOsm, pH 7.3). Solutions were applied and recordings were performed as described in Rosenmund (1995). To examine synaptically activated currents, experiments were performed using recurrent synapses (autapses) or only single autaptic neuroeses on microisland cultures at room temperature (=24° C.). Pipette solutions included (mM): KCl, 120, or K-Gluconate, 125; HEPES, 10; EGTA, 1; MgCl2, 4.6; Na4ATP, 4; Creatinephosphate, 15; creatinephosphokinase 50 U/ml (320 mOsm, pH 7.3). Wild type and Munc13-1 deficient glutamatergic hippocampal neurons were used to study the characteristics of Munc13-1 and Munc13-1 independent synapses. For these purposes, individual neurons grown on microisland beds of glial cells (Bekkers, 1991) were employed. In this autaptic culture system, where isolated nerve cells make multiple synaptic contacts, so called autapses, with their own dendritic trees, spontaneous transmitter release, release of the readily releasable vesicle pool induced by hypertonic solutions, and action potential evoked release arise from the same synapse population and can be measured readily with patch clamp techniques. Autaptic responses were obtained after brief (1-2 ms) somatic depolarization. This induces an unclamped action potential that is followed by a postsynaptic response with a delay of 2-4 ms. Excitatory, glutamatergic and inhibitory, GABAergic synaptic currents were distinguished by their characteristic pharmacological and kinetic properties. Excitatory glutamatergic cells were mainly characterized because the differential equipment of presynaptic terminals formed by the same axon with Munc13 priming factors is not apparent in GABAergic neurons.
Design of and infection with Semliki Forest Virus was done according to published procedures (Betz, 2001; Ashery, 2000). Cells were measured 22-26 h after infection.
Routinely, cells from Munc13-1^H567K/Munc13-1^H567K mutants were analyzed 12-20 day after plating and compared to wild type control cells obtained from littermates. In some experiments we employed Munc13-1/Munc13-2 double deficient neurons as model cells to study the characteristics of the Munc13-1^H567K variant in comparison to wild type Munc13-1 following overexpression using the Semliki-Forest-Virus system. In contrast to Munc13-1 deficient glutamatergic hippocampal neurons, which still show measurable glutamate release (10% of wild type levels; Augustin, 1999b), double homozygous Munc13-1/Munc13-2 deletion mutant neurons are characterized by a complete lack of spontaneous and evoked transmitter release but can be rescued by reintroduction of Munc13 proteins. This rescue approach was persued in Munc13-1/Munc13-2 double mutant neurons instead of breeding the Munc13-1^H567K/Munc 3-1^H567K mutation into the Munc13-2 deletion mutant background because it was much faster and allowed the direct comparison of additional mutant (Betz, 2001) and wild type Munc13-1 variants in the same cultures. Autaptic responses were obtained after brief (1-2 ms) somatic depolarization. This induces an unclamped action potential that is followed by a postsynaptic response with a delay of 2-4 ms. Excitatory, glutamatergic synaptic currents were identified by their characteristic pharmacological and kinetic properties.

hippocampal neurons [4] = assay: Effect of PDBU on mEPSC frequency in autaptic neurons; assay type: cell-based, mouse; conditions: 1 μM PDBU
Experimental: as §1, with “For these purposes, individual neurons grown on microisland beds of glial cells (Bekkers, 1991) were employed.” left out, “Autaptic responses were obtained after brief (1-2 ms) somatic depolarization. This induces an unclamped action potential that is followed by a postsynaptic response with a delay of 2-4 ms. Excitatory, glutamatergic and inhibitory, GABAergic synaptic currents were distinguished by their characteristic pharmacological and kinetic properties. Excitatory glutamatergic cells were mainly characterized because the differential equipment of presynaptic terminals formed by the same axon with Munc13 priming factors is not apparent in GABAergic neurons.” left out
Routinely, cells from Munc13-1^H567K/Munc13-1^H567K mutants were analyzed 12-20 day after plating and compared to wild type control cells obtained from littermates. […]

hippocampal neurons [5] = assay: Readily releasable vesicle pool size by hypertonic sucrose application; assay type: cell-based, mouse; conditions: in response to PDBU
Experimental: Microisland culture preparation was performed according to Bekkers and Stevens (1991). The extracellular medium contained (mM): NaCl, 167; KCl, 2.4; HEPES, 10; glucose, 10; CaCl2, 4; MgCl2, 4 (340 mOsm, pH 7.3). Solutions were applied and recordings were performed as described in Rosenmund (1995). To examine synaptically activated currents, experiments were performed using recurrent synapses (autapses) or only single autaptic neuroeses on microisland cultures at room temperature (=24° C.). Pipette solutions included (mM): KCl, 120, or K-Gluconate, 125; HEPES, 10; EGTA, 1; MgCl2, 4.6; Na4ATP, 4; Creatinephosphate, 15; creatinephosphokinase 50 U/ml (320 mOsm, pH 7.3). […] In this autaptic culture system, where isolated nerve cells make multiple synaptic contacts, so called autapses, with their own dendritic trees, spontaneous transmitter release, release of the readily releasable vesicle pool induced by hypertonic solutions, and action potential evoked release arise from the same synapse population and can be measured readily with patch clamp techniques. […]
Synaptic depression in wild type neurons has been interpreted as depletion of the readily releasable pool of vesicles because pool sizes and synaptic responses are reduced in parallel during high frequency stimulation. […]

[6] = system: Munc13-1 deficient hippocampal neurons; assay: EPSC augmentation following high frequency action potential trains in Munc13-1 deficient, Munc13-2 dependent neurons; assay type: cell-based, mouse; conditions: 1 μM PDBU; Munc13-2 dependent cells
PKCs = assay type: cell-based, mouse
[7] = 1 μM PDBU, Munc13-1^H567K/Munc13-1^H567K neurons
[8] = Munc13-1 dominated wild type synapses
[9] = after 1 μM PDBU, wildtype neurons

Q: For `C[C@]12N[C@H](Cc3ccccc31)c1ccccc12` [MK-801], which “reduction of the NMDA EPSC component” value (NMDA receptors [1]) is on record?
A: more than 90%

Q: And the “synaptic NMDA receptors activated and blocked during synaptic activity” value (NMDA receptors [2]; Munc13-1 deficient cells)?
A: 20%

Q: And the “cellular NMDA receptors activated and blocked during synaptic activity” value (NMDA receptors [2]; wild type cells)?
A: 75%

Q: For `CCCC(=O)O[C@@H]1[C@@H](C)[C@@]2(O)[C@@H](C=C(CO)C[C@]3(O)C(=O)C(C)=C[C@@H]23)[C@@H]2C(C)(C)[C@]12OC(=O)CCC` [PDBU], which “β-PE induced increase in evoked EPSCs” value (hippocampal neurons [3]; 1 μM PDBU alone, wild type neurons (GÖ 6983 experiment)) is on record?
A: 160±9 % of baseline values

Q: And the “increase of evoked EPSC amplitudes over baseline value” (hippocampal neurons [3]; 1 μM PDBU for 1 min, wild type neurons, before bisindolylmaleimide I)?
A: 90±19%

Q: What about the “evoked EPSC amplitudes” value (hippocampal neurons [3]; 1 μM PDBU for one minute, wildtype neurons) of the same compound?
A: 191±17 % of baseline values

Q: And the “evoked EPSCs” value (hippocampal neurons [3]; 1 μM PDBU, Munc13-1/Munc13-2 double deficient cells overexpressing Munc13-1^H567K)?
A: 108±5 % of control levels

Q: And the “evoked EPSCs” value (hippocampal neurons [3]; 1 μM PDBU, Munc13-1/Munc13-2 double deficient neurons overexpressing wild type Munc13-1)?
A: 246±22 % of control levels

Q: And the “evoked EPSC amplitudes” value (hippocampal neurons [3]; [7])?
A: 131±7 % of baseline values

Q: And the “time constant of increase in evoked EPSC amplitudes” value (hippocampal neurons [3]; [7])?
A: 16 s

Q: And the “time constant of enhancement of evoked EPSC amplitudes” value (hippocampal neurons [3]; 1 μM PDBU, wildtype neurons)?
A: 8 s

Q: And the “phorbol ester induced potentiation of evoked responses” value (hippocampal neurons [3]; PDBU 1 μM, rescue with C1-DAG binding mutant ubMunc13-2(H491K))?
A: 1.04±0.03

Q: What about the “phorbol ester induced potentiation of evoked responses” value (hippocampal neurons [3]; PDBU 1 μM, rescue with Calmodulin binding deficient mutant ubMunc13-2(W387R)) of the same compound?
A: 2.9±0.4 fold

Q: What about the “β-phorbol ester induced EPSC potentiation (synaptic potentiation)” value (hippocampal neurons [3]; Munc13-1 deficient, Munc13-2 dependent synapses) of the same compound?
A: 570±118%

Q: And the “β-phorbol ester induced EPSC potentiation (synaptic potentiation)” value (hippocampal neurons [3]; [8])?
A: 199±25%

Q: And the “phorbol ester induced potentiation of evoked responses” value (hippocampal neurons [3]; PDBU at 1 μM for 1 minute, double deficient neurons rescued with wildtype ubMunc13-2)?
A: 3.9±1.1 fold

Q: What about the EPSC potentiation (hippocampal neurons [3]; Munc13-1/Munc13-2 double deficient neurons rescued with Munc13-1) of the same compound?
A: 247±22%

Q: What about the EPSC potentiation (hippocampal neurons [3]; Munc13-1/Munc13-2 double deficient neurons rescued with ubMunc13-2) of the same compound?
A: 510±83%

Q: What about the “time constant of return to baseline after removal” value (hippocampal neurons [3]; [9]) of the same compound?
A: 27 s

Q: What about the “time for synaptic amplitude to return to baseline after removal” value (hippocampal neurons [3]; [9]) of the same compound?
A: 3 to 4 min

Q: What about the “β-Phorbol ester induced potentiation of IPSCs” value (hippocampal neurons [3]; compared with EPSCs, wild type and Munc13-1 deficient neurons) of the same compound?
A: much less pronounced

Q: What about the phorbol ester response (hippocampal neurons [3]; rescue with ubMunc13-2 deletion construct lacking the first 400 amino acids) of the same compound?
A: 4.5±1.3 fold increase

Q: And the mEPSC frequency (hippocampal neurons [4]; Munc13-1^H567K/Munc13-1^H567K cells)?
A: 127±16 % of control levels

Q: What about the mEPSC frequency (hippocampal neurons [4]; wildtype neurons) of the same compound?
A: 239±34 % of control levels

Q: What about the “increase of readily releasable vesicle pool” value (hippocampal neurons [5]; [8]) of the same compound?
A: 11±5%

Q: What about the “increase of readily releasable vesicle pool” value (hippocampal neurons [5]; Munc13-2 dependent synapses) of the same compound?
A: 30±15%

Q: What about the “additivity of β-phorbol ester induced potentiation and train induced augmentation” value [6] of the same compound?
A: not additive

Q: And the “phosphorylation of Munc13-1” value (PKCs)?
A: weakly phosphorylated in a constitutive, β-PE independent manner

Q: And the “phosphorylation of SNAP-25 and GAP-43” value (PKCs)?
A: strongly phosphorylated
